Data taken from ChEMBL document CHEMBL5724914, “Linking interpersonal differences in gut microbiota composition and drug biotransformation activity” (2024).

Legend:
[1] = (§1) The drug is tested on Z-029 corresponding to rat gut metagenome with ENA study accession number: PRJEB37062 and ENA sample accession number: ERS12561828 for biotransformation under anaerobic condition. The drug concentrations were measured over 9 timepoints collected between 0 and 24 hours of incubation by liquid-chromatography-coupled mass spectrometry (LC–MS); settings: 2 µM
[2] = as §1, with “Z-026” for “Z-029”, “to” for “to rat gut”, “ERS12561825” for “ERS12561828”; settings: 2 µM
[3] = as §1, with “Z-023” for “Z-029”, “to” for “to rat gut”, “ERS12561822” for “ERS12561828”; settings: 2 µM
[4] = as §1, with “on Z-022” for “on Z-029”, “to mouse” for “to rat”, “number: ERS12561821” for “number: ERS12561828”; settings: 2 µM
[5] = as §1, with “Z-014” for “Z-029”, “ERS12561814” for “ERS12561828”; settings: 2 µM
[6] = as §1, with “Z-012” for “Z-029”, “to” for “to rat gut”, “ERS12561812” for “ERS12561828”; settings: 2 µM
[7] = as §1, with “on WLS-170” for “on Z-029”, “to human” for “to rat”, “number: ERS12561762” for “number: ERS12561828”; settings: 2 µM
[8] = as §1, with “on WLS-086” for “on Z-029”, “to human” for “to rat”, “number: ERS12561752” for “number: ERS12561828”; settings: 2 µM
[9] = as §1, with “on WLS-010” for “on Z-029”, “to human” for “to rat”, “number: ERS12561743” for “number: ERS12561828”; settings: 2 µM
[10] = human gut metagenome, 24 h, 2 µM
[11] = human gut metagenome, 24 h, 2 µM; remark: listed apart in the source
[12] = human gut metagenome, 24 h, 2 µM; remark: listed apart in the source
[13] = human gut metagenome, 24 h, 2 µM; remark: listed apart in the source
[14] = human gut metagenome, 24 h, 2 µM; remark: listed apart in the source
[15] = human gut metagenome, 24 h, 2 µM; remark: listed apart in the source
[16] = human gut metagenome, 24 h, 2 µM; remark: listed apart in the source
[17] = human gut metagenome, 24 h, 2 µM; remark: listed apart in the source
[18] = as §1, with “on Z-017” for “on Z-029”, “to mouse” for “to rat”, “number: ERS12561816” for “number: ERS12561828”; settings: 2 µM
[19] = as §1, with “on WLS-082” for “on Z-029”, “to human” for “to rat”, “number: ERS12561751” for “number: ERS12561828”; settings: 2 µM
[20] = as §1, with “on Z-020” for “on Z-029”, “to rabbit” for “to rat”, “number: ERS12561819” for “number: ERS12561828”; settings: 2 µM
Also: call rule not given here.

| Bacterial Biotransformation [1] | Bacterial Biotransformation [2] | Bacterial Biotransformation [3] | Bacterial Biotransformation [4] | Bacterial Biotransformation [5] | Bacterial Biotransformation [6] | Bacterial Biotransformation [7] | Bacterial Biotransformation [8] | Bacterial Biotransformation [9] | Bacterial Biotransformation [10] | Bacterial Biotransformation [11] | Bacterial Biotransformation [12] | Bacterial Biotransformation [13] | Bacterial Biotransformation [14] | Bacterial Biotransformation [15] | Bacterial Biotransformation [16] | Bacterial Biotransformation [17] | Bacterial Biotransformation [19] | Bacterial Biotransformation [20] | Compound | Bacterial Biotransformation [18] |
| --- | --- | --- | --- | --- | --- | --- | --- | --- | --- | --- | --- | --- | --- | --- | --- | --- | --- | --- | --- | --- |
| Compound NOT metabolized | Compound NOT metabolized | Compound NOT metabolized | Compound metabolized | Compound NOT metabolized | Compound NOT metabolized | Compound metabolized | Compound metabolized | Compound metabolized | Compound NOT metabolized | Compound NOT metabolized | Compound NOT metabolized | Compound NOT metabolized | Compound NOT metabolized | Compound metabolized | Compound metabolized | Compound metabolized |  |  | CSc1ccc2c(c1)C(N1CCN(C)CC1)Cc1ccccc1S2.O=C(O)/C=C\C(=O)O (configuration not stated) |  |
| Compound NOT metabolized | Compound NOT metabolized | Compound NOT metabolized | Compound NOT metabolized | Compound NOT metabolized | Compound NOT metabolized | Compound metabolized | Compound metabolized | Compound NOT metabolized | Compound metabolized | Compound metabolized | Compound metabolized | Compound metabolized | Compound metabolized | Compound metabolized |  | Compound metabolized | Compound NOT metabolized | Compound NOT metabolized | CN1CCC[C@@H]1CCO[C@](C)(c1ccccc1)c1ccc(Cl)cc1.O=C(O)/C=C/C(=O)O [CLEMASTINE FUMARATE] |  |
| Compound NOT metabolized | Compound NOT metabolized | Compound metabolized | Compound NOT metabolized |  |  | Compound NOT metabolized | Compound NOT metabolized | Compound NOT metabolized | Compound NOT metabolized | Compound NOT metabolized | Compound NOT metabolized | Compound NOT metabolized | Compound NOT metabolized | Compound NOT metabolized | Compound NOT metabolized | Compound NOT metabolized | Compound NOT metabolized |  | CCOC(=O)[C@H](CCc1ccccc1)N[C@@H](C)C(=O)N1CCC[C@H]1C(=O)O.O=C(O)/C=C\C(=O)O [ENALAPRIL MALEATE] |  |
| Compound NOT metabolized | Compound NOT metabolized | Compound NOT metabolized | Compound NOT metabolized | Compound NOT metabolized | Compound NOT metabolized | Compound metabolized | Compound metabolized | Compound metabolized | Compound metabolized | Compound metabolized | Compound metabolized | Compound metabolized | Compound metabolized | Compound metabolized | Compound metabolized | Compound metabolized |  | Compound NOT metabolized | CCc1cccc2c3c([nH]c12)C(CC)(CC(=O)O)OCC3 (configuration not stated) [ETODOLAC] | Compound NOT metabolized |
| Compound metabolized |  | Compound metabolized | Compound metabolized |  |  | Compound metabolized | Compound NOT metabolized | Compound metabolized | Compound metabolized |  | Compound metabolized | Compound metabolized | Compound metabolized | Compound NOT metabolized | Compound NOT metabolized | Compound NOT metabolized |  | Compound metabolized | C#C[C@]1(OC(C)=O)CC[C@H]2[C@@H]3CCC4=CC(=O)CC[C@@H]4[C@H]3CC[C@@]21C [NORETHINDRONE ACETATE] | Compound metabolized |
| Compound NOT metabolized | Compound NOT metabolized | Compound metabolized | Compound NOT metabolized | Compound NOT metabolized | Compound NOT metabolized | Compound metabolized | Compound NOT metabolized | Compound NOT metabolized | Compound NOT metabolized | Compound NOT metabolized | Compound NOT metabolized | Compound NOT metabolized | Compound NOT metabolized |  | Compound NOT metabolized | Compound NOT metabolized | Compound metabolized |  | CCCCCNC(=N)N/N=C/c1c[nH]c2ccc(OC)cc12.O=C(O)/C=C\C(=O)O [TEGASEROD MALEATE] | Compound NOT metabolized |

| Compound | Bacterial Biotransformation [1] | Bacterial Biotransformation [2] | Bacterial Biotransformation [3] | Bacterial Biotransformation [4] | Bacterial Biotransformation [5] | Bacterial Biotransformation [6] | Bacterial Biotransformation [7] | Bacterial Biotransformation [8] | Bacterial Biotransformation [9] | Bacterial Biotransformation [10] | Bacterial Biotransformation [11] | Bacterial Biotransformation [12] | Bacterial Biotransformation [13] | Bacterial Biotransformation [14] | Bacterial Biotransformation [15] | Bacterial Biotransformation [16] | Bacterial Biotransformation [17] | Bacterial Biotransformation [19] | Bacterial Biotransformation [20] | Bacterial Biotransformation [18] |
| --- | --- | --- | --- | --- | --- | --- | --- | --- | --- | --- | --- | --- | --- | --- | --- | --- | --- | --- | --- | --- |
| CC(C)C[C@H]1C(=O)N2CCC[C@H]2[C@]2(O)O[C@](NC(=O)[C@@H]3C=C4c5cccc6[nH]c(Br)c(c56)C[C@H]4N(C)C3)(C(C)C)C(=O)N12.CS(=O)(=O)O [BROMOCRIPTINE MESYLATE] | Compound metabolized | Compound metabolized | Compound metabolized | Compound metabolized | Compound metabolized | Compound metabolized | Compound metabolized |  | Compound metabolized | Compound metabolized |  | Compound NOT metabolized | Compound NOT metabolized | Compound metabolized | Compound metabolized | Compound metabolized | Compound metabolized | Compound metabolized |  | Compound metabolized |
| CN1[C@@H]2CC[C@H]1C[C@@H](OC(=O)[C@H](CO)c1ccccc1)C2 [HYOSCYAMINE] | Compound NOT metabolized | Compound NOT metabolized | Compound NOT metabolized | Compound NOT metabolized | Compound NOT metabolized | Compound NOT metabolized | Compound metabolized | Compound metabolized |  |  | Compound NOT metabolized |  |  | Compound metabolized | Compound metabolized | Compound metabolized |  |  |  | Compound NOT metabolized |
| COc1ccc(Cc2nccc3cc(OC)c(OC)cc23)cc1OC [PAPAVERINE] | Compound NOT metabolized | Compound NOT metabolized | Compound metabolized | Compound metabolized | Compound NOT metabolized | Compound NOT metabolized | Compound metabolized | Compound metabolized | Compound metabolized | Compound metabolized | Compound metabolized | Compound NOT metabolized | Compound NOT metabolized | Compound metabolized | Compound metabolized | Compound metabolized | Compound metabolized |  | Compound NOT metabolized | Compound NOT metabolized |
